Here are results for 3 molecules from patent US10220021B2, “Methods for treating and preventing ocular diseases, disorders, and conditions with melanin and melanin analogs, precursors, and derivatives” (priority 2014, dated 2019).

For one data set, the system named is eyes of healthy rats. The following applies: rat, in vivo.
A further data set relates to hyphema in rabbits. The following applies: rabbit, in vivo; cited from earlier work.
The subject of data set [1] is leukoplakia and hyperemia of the eye. In words: Topical treatment of leukoplakia and hyperemia of the eye in a patient. It is filed as in vivo, human. The following applies: topical cortisone drops, two months, right eye. From the text:
The leukoplakia was hypothesized to be the result of excessive sun exposure and chemicals. The patient was initially treated with topical cortisone drops, and the cortisone treatment continued for two months.
One month subsequent to stopping cortisone treatment, the patient underwent treatment with a 3% aqueous solution of melanin (w/v) that was topically applied in the form of eye drops. The aqueous solution was produced by mixing water and chemically synthesized melanin (synthetic melanin). […] Three to four drops (about 50 μL per drop) of the 3% aqueous melanin solution were administered for each application, and the solution was applied four times per day at approximately six hour intervals. […] The same dosing regimen was used over the entire course of the treatment.

In data set [2] the test system is cornea of the right eye of a Wistar rat. The following applies: cited from earlier work; for Observation in Treated Eye: Angiogenesis / Observation in Treated Eye: Corneal Keratoconus / Observation in Treated Eye: No Change: 10 μL topically once, 5 rats treated, one week.

Like-named read-outs stand apart in the source and are kept apart here.

Procedure for eyes of healthy rats: The effect of subconjunctival injection of melanin into the eyes of healthy rats was tested. Rats were put under general anesthesia by intraperitoneal injection of barbiturates. A total of five rats were used in the study. Then, 500 μL of a 3% aqueous melanin solution was administered to the right eye of each of the rats by subconjunctival injection. The left eye was left untreated.

Consider melanin, for which, in the data set with eyes of healthy rats, the “appearance of treated eyes immediately after injection” value was “increase in size and some distortion”; the “visible marks on the ocular tissue at the injection site” value was “no visible marks”; the “visible signs of inflammation, irritation, or subconjunctival bleeding” value was “nor were any visible signs of inflammation, irritation, or subconjunctival bleeding observed”. In addition, the incidence of rebleeds result in the data set with hyphema in rabbits is recorded as “increase”.
For the molecule `C[C@]12CCC(=O)C=C1CC[C@@H]1[C@@H]2C(=O)C[C@@]2(C)[C@H]1CC[C@]2(O)C(=O)CO` [cortisone], in data set [1], the “improvement of leukoplakia and hyperemia” value is listed as “no improvement”.
In the case of `Oc1ccccc1` [Phenol, phenol], in data set [2] (all concentrations of phenol tested (0.1 M to 8.5 M), at least one rat in each group, one week after application), the “formation of new blood vessels in the cornea” value was “new blood vessels began to form in the cornea”. Moreover, the “changes associated with corneal ectasia, particularly corneal keratoconus” value in data set [2] (higher concentrations of phenol (e.g., 3.0 M, 5.6 M, and 8.5 M)) was “observed in some of the rats”. The “Observation in Treated Eye: Angiogenesis” value in data set [2] (phenol 0.1M) was 1 Number of Rats; in data set [2] (phenol 0.5M) it was 1 Number of Rats; in data set [2] (phenol 1.0M) it was 3 Number of Rats; in data set [2] (phenol 3.0M), 4 Number of Rats; in data set [2] (phenol 6.5M), 4 Number of Rats; in data set [2] (phenol 8.5M) it was 3 Number of Rats. For the same molecule, the “Observation in Treated Eye: Corneal Keratoconus” value is given as 0 Number of Rats in data set [2] (phenol 0.1M); 0 Number of Rats in data set [2] (phenol 0.5M); 0 Number of Rats in data set [2] (phenol 1.0M); 2 Number of Rats in data set [2] (phenol 3.0M); 2 Number of Rats in data set [2] (phenol 6.5M); 1 Number of Rats in data set [2] (phenol 8.5M). Besides, the “Observation in Treated Eye: No Change” value in data set [2] (phenol 0.1M) is 4 Number of Rats; in data set [2] (phenol 0.5M), 4 Number of Rats; in data set [2] (phenol 1.0M) it was 2 Number of Rats; in data set [2] (phenol 3.0M) it was 1 Number of Rats; in data set [2] (phenol 6.5M), 1 Number of Rats; in data set [2] (phenol 8.5M) it was 2 Number of Rats.
